The results in this text go back to patent US12128028B2, “Heterocyclic sulfonamide derivatives and pharmaceutical uses thereof” (METRION BIOSCIENCES LIMITED, priority 2018, dated 2024).

The assay addresses human Kv1.3 (Homo sapiens (Human), UniProt P22001). Kind of assay: Kv1.3 potency evaluation, automated patch clamp electrophysiology (QPatch HT) in CHO-Kv1.3 cells. Type of assay: cell-based. As to conditions: whole-cell QPatch HT, % inhibition of charge, step to +30 mV, four concentrations, N≥3 cells, read-out: hKv1.3 IC50. In outline: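 Automated whole-cell patch clamp in CHO cells stably expressing human Kv1.3; steps from −80 to +30 mV (500 ms) at 0.067 Hz. Four cumulative concentrations after vehicle (0.1-0.3% DMSO); charge inhibition vs vehicle fitted by four-parameter logistic for IC50, N≥3 cells.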

Chain of human Kv1.3 (P22001 whole entry): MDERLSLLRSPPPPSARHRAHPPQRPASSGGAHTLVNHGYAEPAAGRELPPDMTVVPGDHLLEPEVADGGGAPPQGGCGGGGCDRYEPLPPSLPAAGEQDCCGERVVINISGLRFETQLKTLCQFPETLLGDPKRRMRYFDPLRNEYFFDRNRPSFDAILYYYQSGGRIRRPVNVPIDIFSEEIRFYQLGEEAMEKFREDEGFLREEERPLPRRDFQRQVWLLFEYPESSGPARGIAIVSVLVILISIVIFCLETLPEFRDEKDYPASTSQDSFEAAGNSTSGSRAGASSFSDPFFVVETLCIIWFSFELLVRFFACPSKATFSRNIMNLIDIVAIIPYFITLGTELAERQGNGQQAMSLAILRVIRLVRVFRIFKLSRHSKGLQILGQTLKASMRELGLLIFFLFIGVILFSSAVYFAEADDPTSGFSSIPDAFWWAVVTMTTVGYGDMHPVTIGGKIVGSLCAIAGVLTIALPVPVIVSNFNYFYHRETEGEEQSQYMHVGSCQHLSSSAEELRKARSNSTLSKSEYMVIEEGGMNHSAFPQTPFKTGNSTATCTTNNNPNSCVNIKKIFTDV

As to `CC1(C)N=C(C23CC(N(Cc4ccc(Cl)c(Cl)c4)S(=O)(=O)c4ccccc4)(C2)C3)N[C@H]1C(=O)N1CCC12CC(F)(F)C2` (mixture of isomers) [Example 134], the IC50 was 79 nM.

For the compound `CC1(C)N=C(C23CC(N(Cc4ccc(Cl)c(F)c4)S(=O)(=O)c4ccccc4)(C2)C3)N[C@H]1C(=O)NCCC1CC1` (mixture of isomers) [Example 20], the IC50 worked out at 37 nM.

Take `C[C@@]1(C(=O)NCC2CCCCC2)CN=C(C23CC(N(Cc4ccc(C(F)(F)F)cc4)S(=O)(=O)c4ccc(F)cc4)(C2)C3)N1` (mixture of isomers) [Example 285]: the IC50 is 802 nM.

`C[C@]1(C(=O)NCC2CCC2)CN=C(C23CC(N(Cc4ccc(C(F)(F)F)cc4)S(=O)(=O)c4ccc(F)cc4)(C2)C3)N1` (mixture of isomers) [Example 214]: the IC50 was 159 nM.

In the case of `CC(C)NC(=O)[C@@]1(C)CN=C(C23CC(N(Cc4ccc(C(F)(F)F)cc4)S(=O)(=O)c4ccc(F)cc4)(C2)C3)N1` (mixture of isomers) [Example 250], the IC50 came to 286 nM.

Turning to `CC1(C)N=C(C23CC(N(Cc4ccc(Cl)c(Cl)c4)S(=O)(=O)CCC(F)F)(C2)C3)N[C@H]1C(=O)NC[C@H]1CC1(F)F` (mixture of isomers) [Example 179], the IC50 was found to be 105 nM.

As to `CC1(C)N=C(C23CC(N(Cc4ccc(C(F)(F)F)c(Cl)c4)S(=O)(=O)c4ccccc4)(C2)C3)N[C@H]1C(=O)NCCC(F)(F)F` (mixture of isomers) [Example 221], the IC50 worked out at 169 nM.

Take `CC1(C)N=C(C23CC(N(Cc4ccc(Cl)cc4)S(=O)(=O)c4ccccc4C(N)=O)(C2)C3)N[C@H]1C(=O)NCCC(F)(F)F` (mixture of isomers) [Example 292]: the IC50 stood at 2950 nM.

With `CC1(C)N=C(C23CC(N(Cc4ccc(Cl)cc4)S(=O)(=O)CC(F)(F)F)(C2)C3)N[C@H]1C(=O)NCCC(F)(F)F` (mixture of isomers) [Example 276], the IC50 came out at 575 nM.

Regarding `C[C@]1(C(=O)NC2CCC2)CN=C(C23CC(N(Cc4ccc(C(F)(F)F)cc4)S(=O)(=O)c4ccc(F)cc4)(C2)C3)N1` (mixture of isomers) [Example 199], the IC50 was determined as 129 nM.

`CC1(C)N=C(C23CC(N(Cc4ccc(Cl)cc4)S(=O)(=O)C4CCCC4)(C2)C3)N[C@H]1C(=O)NCCC(F)(F)F` (mixture of isomers) [Example 121]: the IC50 came to 75 nM.

On to `CC(C)(C)NC(=O)[C@@H]1NC(C23CC(N(Cc4ccc(Cl)c(F)c4)S(=O)(=O)c4ccccc4)(C2)C3)=NC1(C)C` (mixture of isomers) [Example 175], for which the IC50 is 104 nM.

Consider `CC1(C)N=C(C23CC(N(Cc4ccc(Cl)c(F)c4)S(=O)(=O)c4ccccc4)(C2)C3)N[C@H]1C(=O)N(CCC(F)(F)F)C1CC1` (mixture of isomers) [Example 119], for which the IC50 is 74 nM.

With `CN(C(=O)[C@@H]1NC(C23CC(N(Cc4ccc(Cl)c(F)c4)S(=O)(=O)c4ccccc4)(C2)C3)=NC1(C)C)C1CC(C(F)F)C1` (mixture of isomers) [Example 38], the IC50 worked out at 45 nM.

With `CC1(C)N=C(C23CC(N(Cc4ccc(Cl)c(F)c4)S(=O)(=O)c4ccccc4)(C2)C3)N[C@@H]1C(=O)NCC1CC(F)(F)C1` (mixture of isomers) [Example 135], the half-inhibitory concentration (IC50) is 81 nM.

For the compound `CC1(C)N=C(C23CC(N(Cc4ccc(Cl)c(F)c4)S(=O)(=O)c4ccccc4)(C2)C3)N[C@H]1C(=O)NCC(O)C(F)(F)F` (mixture of isomers) [Example 233], the IC50 amounted to 209 nM.

Take `CC1(C)N=C(C23CC(N(Cc4ccc(Cl)cc4)S(=O)(=O)c4ccccc4[N+](=O)[O-])(C2)C3)N[C@H]1C(=O)NCCC(F)(F)F` (mixture of isomers) [Example 191]: the IC50 came to 114 nM.

With `CC1(C)N=C(C23CC(N(Cc4ccc(C(F)(F)F)cc4)S(=O)(=O)c4ccc(F)cc4)(C2)C3)N[C@@]1(C)C(=O)NCCC(F)(F)F` (mixture of isomers) [Example 255], the IC50 amounted to 341 nM.
